According to ChEMBL document CHEMBL1148979, “Thiobutacin, a novel antifungal and antioomycete antibiotic from Lechevalieria aerocolonigenes” (2004):
In brackets after ≈: the same amount, converted by molar mass.

Tests used:
Format in all cases: functional
Phytophthora capsici = assay: Antioomycete activity against Phytophthora capsici by microtiter broth dilution assay
Botrytis cinerea = assay: Antifungal activity against Botrytis cinerea
Saccharomyces cerevisiae = assay: Antimicrobial activity against Saccharomyces cerevisiae

Molecule	MIC (Phytophthora capsici) [µg/mL]	MIC (Botrytis cinerea) [µg/mL]	MIC (Saccharomyces cerevisiae) [µg/mL]
COCC(=O)N(c1c(C)cccc1C)C(C)C(=O)OC (stereo not drawn) [METALAXYL]	30 (≈ 107 µM)		
Clc1ccc(COC(Cn2ccnc2)c2ccc(Cl)cc2Cl)c(Cl)c1 (stereo not drawn) [MICONAZOLE]		10 (≈ 24 µM)	5 (≈ 12 µM)
CSC(CC(=O)c1ccccc1N)C(=O)O (stereo not drawn) [THIOBUTACIN]	10 (≈ 41.8 µM)	50 (≈ 209 µM)	30 (≈ 125 µM)
NYSTATIN		3	7
